Test [1] concerns HCV genotype 1a (H77 strain) replicon in HUH-7 cells. The test can be described thus: HCV replicon luciferase reporter assay, genotype 1a. The class given is cell-based. Conditions: Hepatitis C virus, Huh-7, 72 h, HCV genotype 1a replicon luciferase, 3 days incubation. The method in brief: (§1)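 Replicon inhibition for both genotypes was measured as Renilla luciferase signal (EnduRen, 7.5 μM final, 2 h) after 3-day, 37° C exposure of replicon-bearing HUH-7 cells in 4% FCS DMEM, 0.5% DMSO. The 1b construct carries S1179I; the 1a H77 construct carries P1496L and S2204I. Twenty-point, 3-fold dilutions were fitted four-parametrically for EC50, and CC50 was taken from multiplexed Cell Titer-Blue.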

Test [2] concerns HCV genotype 1b (Con1) replicon in HUH-7 cells. Briefly: HCV replicon luciferase reporter assay, genotype 1b. The class given is cell-based. The conditions noted are these: Hepatitis C virus, Huh-7, 72 h, HCV genotype 1b replicon luciferase, 3 days incubation. The method, boiled down: as §1
For orientation: In antiviral work, replicon cells carry a viral genome segment that copies itself.

Setting [3] is: GETYPE1A, read-out: LE_1a (EC50, range).
The mark [4] stands for this setting: GETYPE1B, read-out: LE_1b (EC50, range).

The source of these data is patent publication US9499550B2 (BRISTOL-MYERS SQUIBB COMPANY, priority 2012, dated 2016).

Where two headings read alike, the source gives them in different places. Some results are limits rather than exact numbers.

For orientation: EC50 means the concentration that produces a half-maximal response. `COc1ccc2c(O[C@@H]3C[C@H]4C(=O)N[C@]5(C(=O)NS(=O)(=O)C6(CF)CC6)C[C@H]5/C=C\CC[C@@H](C)C[C@@H](C)[C@H](NC(=O)OC(C)(C)C(F)(F)F)C(=O)N4C3)nccc2c1` [Compound 4151]: the EC50 in test [1] (setting [3]) and in test [2] (setting [4]) was below 5.46 nM throughout.
For `COc1cnc(O[C@@H]2C[C@H]3C(=O)N[C@]4(C(=O)NS(=O)(=O)C5(Cl)CC5)C[C@H]4/C=C\CC[C@@H](C)C[C@@H](C)[C@H](NC(=O)OC(C)(C)C(F)(F)F)C(=O)N3C2)c2ccccc12` [Compound 4153], the concentration for a half-maximal effect (EC50) in test [1] (setting [3]) and in test [2] (setting [4]) was below 5.46 nM throughout.
Regarding `COc1ccc2c(O[C@@H]3C[C@H]4C(=O)N[C@]5(C(=O)NS(=O)(=O)C6(CF)CC6)C[C@H]5/C=C\CC[C@@H](C)C[C@@H](C)[C@H](NC(=O)OC(C)(C)C(F)(F)F)C(=O)N4C3)ncc(OC)c2c1` [Compound 4154], the 50% effective concentration (EC50) in test [1] (setting [3]) and in test [2] (setting [4]) was below 5.46 nM each time.
For the molecule `COc1cnc(O[C@@H]2C[C@H]3C(=O)N[C@]4(C(=O)NS(=O)(=O)C5(CF)CC5)C[C@H]4/C=C\CC[C@@H](C)C[C@@H](C)[C@H](NC(=O)OC(C)(C)C(F)(F)F)C(=O)N3C2)c2ccccc12` [Compound 4155], the EC50 in test [1] (setting [3]) and in test [2] (setting [4]) was below 5.46 nM each time.
On to `COc1ccc2c(O[C@@H]3C[C@H]4C(=O)N[C@]5(C(=O)NS(=O)(=O)C6(CF)CC6)C[C@H]5/C=C\CC[C@@H](C)C[C@@H](C)[C@H](NC(=O)OC(C)(C)C)C(=O)N4C3)ncc(OC)c2c1` [Compound 4156, tert-butyl (2R,6S,7R,9R,13aS,14aR,16aS,Z)-2-(4,6-dimethoxyisoquinolin-1-yloxy)-14a-(1-(fluoromethyl)cyclopropylsulfonylcarbamoyl)-7,9-dimethyl-5,16-dioxo-1,2,3,5,6,7,8,9,10,11,13a,14,14a,15,16,16a-hexadecahydrocyclopropa[e]pyrrolo[1,2-a][1,4]diazacyclopentadecin-6-ylcarbamate], for which the EC50 in test [1] (read-out: LE_1a (EC50, range)) was below 5.46 nM; in test [2] (read-out: LE_1b (EC50, range)), below 5.46 nM.
With `COc1cnc(O[C@@H]2C[C@H]3C(=O)N[C@]4(C(=O)NS(=O)(=O)C5(CF)CC5)C[C@H]4/C=C\CC[C@@H](C)C[C@@H](C)[C@H](NC(=O)OC(C)(C)C)C(=O)N3C2)c2ccccc12` [Compound 4157, tert-butyl (2R,6S,7R,9R,13aS,14aR,16aS,Z)-14a-(1-(fluoromethyl)cyclopropylsulfonylcarbamoyl)-2-(4-methoxyisoquinolin-1-yloxy)-7,9-dimethyl-5,16-dioxo-1,2,3,5,6,7,8,9,10,11,13a,14,14a,15,16,16a-hexadecahydrocyclopropa[e]pyrrolo[1,2-a][1,4]diazacyclopentadecin-6-ylcarbamate], the EC50 in test [1] (read-out: LE_1a (EC50, range)) was below 5.46 nM; in test [2] (read-out: LE_1b (EC50, range)), below 5.46 nM.
In the case of `C[C@@H]1CC/C=C\[C@@H]2C[C@@]2(C(=O)NS(=O)(=O)C2(C)CC2)NC(=O)[C@@H]2C[C@@H](Oc3ncc(OCC4CC4)c4ccccc34)CN2C(=O)[C@@H](NC(=O)OC(C)(C)C(F)(F)F)[C@H](C)C1` [Compound 4158], the half-maximal effective concentration (EC50) in test [1] (setting [3]) and in test [2] (setting [4]) was below 5.46 nM throughout.
Consider `COc1cc2ccnc(O[C@@H]3C[C@H]4C(=O)N[C@]5(C(=O)NS(=O)(=O)C6(CF)CC6)C[C@H]5/C=C\CC[C@@H](C)C[C@@H](C)[C@H](NC(=O)OC(C)(C)C)C(=O)N4C3)c2cc1F` [Compound 4159, tert-butyl (2R,6S,7R,9R,13aS,14aR,16aS,Z)-2-(7-fluoro-6-methoxyisoquinolin-1-yloxy)-14a-(1-(fluoromethyl)cyclopropylsulfonylcarbamoyl)-7,9-dimethyl-5,16-dioxo-1,2,3,5,6,7,8,9,10,11,13a,14,14a,15,16,16a-hexadecahydrocyclopropa[e]pyrrolo[1,2-a][1,4]diazacyclopentadecin-6-ylcarbamate], for which the concentration for a half-maximal effect (EC50) was below 5.46 nM in test [1] (read-out: LE_1a (EC50, range)) and below 5.46 nM in test [2] (read-out: LE_1b (EC50, range)).
For `COc1cc2c(OC)cnc(O[C@@H]3C[C@H]4C(=O)N[C@]5(C(=O)NS(=O)(=O)C6(CF)CC6)C[C@H]5/C=C\CC[C@@H](C)C[C@@H](C)[C@H](NC(=O)OC(C)(C)C(F)(F)F)C(=O)N4C3)c2cc1F` [Compound 4160], the concentration giving a half-maximal response (EC50) in test [1] (setting [3]) and in test [2] (setting [4]) was below 5.46 nM throughout.
With `COc1cc2ccnc(O[C@@H]3C[C@H]4C(=O)N[C@]5(C(=O)NS(=O)(=O)C6(CF)CC6)C[C@H]5/C=C\CC[C@@H](C)C[C@@H](C)[C@H](NC(=O)OC(C)(C)C(F)(F)F)C(=O)N4C3)c2cc1F` [Compound 4161], the EC50 in test [1] (setting [3]) and in test [2] (setting [4]) was below 5.46 nM each time.
`COc1ccc2ncc(O[C@@H]3C[C@H]4C(=O)N[C@]5(C(=O)NS(=O)(=O)C6(C)CC6)C[C@H]5/C=C\CC[C@@H](C)C[C@@H](C)[C@H](NC(=O)OC(C)(C)C(F)(F)F)C(=O)N4C3)nc2c1` [Compound 4162]: the half-maximal effective concentration (EC50) in test [1] (setting [3]) and in test [2] (setting [4]) was below 5.46 nM throughout.
With `COc1ccc2nc(O[C@@H]3C[C@H]4C(=O)N[C@]5(C(=O)NS(=O)(=O)C6(C)CC6)C[C@H]5/C=C\CC[C@@H](C)C[C@@H](C)[C@H](NC(=O)OC(C)(C)C(F)(F)F)C(=O)N4C3)cnc2c1` [Compound 4163], the concentration giving a half-maximal response (EC50) in test [1] (GETYPE1A, read-out: LE_1a (EC50)) is 9.8 nM; in test [1] (setting [3]) it was 4.82 to 103 nM; in test [2] (GETYPE1B, read-out: LE_1b (EC50)), 1.89 nM; in test [2] (setting [4]), below 5.46 nM.
In the case of `COc1cc2c(OC)cnc(O[C@@H]3C[C@H]4C(=O)N[C@]5(C(=O)NS(=O)(=O)C6(C)CC6)C[C@H]5/C=C\CC[C@@H](C)C[C@@H](C)[C@H](NC(=O)OC(C)(C)C(F)(F)F)C(=O)N4C3)c2cc1F` [Compound 4164], the EC50 in test [1] (setting [3]) and in test [2] (setting [4]) was below 5.46 nM each time.
As for `COc1cc2ccnc(O[C@@H]3C[C@H]4C(=O)N[C@]5(C(=O)NS(=O)(=O)C6(CF)CC6)C[C@H]5/C=C\CC[C@@H](C)C[C@@H](C)[C@H](NC(=O)C(C)(C)C)C(=O)N4C3)c2cc1F` [Compound 4165, (2R,6S,7R,9R,13aS,14aR,16aS,Z)-2-(7-fluoro-6-methoxyisoquinolin-1-yloxy)-N-(1-(fluoromethyl)cyclopropylsulfonyl)-7,9-dimethyl-5,16-dioxo-6-pivalamido-1,2,3,5,6,7,8,9,10,11,13a,14,14a,15,16,16a-hexadecahydrocyclopropa[e]pyrrolo[1,2-a][1,4]diazacyclopentadecine-14a-carboxamide], the concentration for a half-maximal effect (EC50) is below 5.46 nM in test [1] (read-out: LE_1a (EC50, range)) and below 5.46 nM in test [2] (read-out: LE_1b (EC50, range)).
On to `C[C@@H]1CC/C=C\[C@@H]2C[C@@]2(C(=O)NS(=O)(=O)C2CC2)NC(=O)[C@@H]2C[C@@H](Oc3ncc(OCC4CC4)c4ccc(F)cc34)CN2C(=O)[C@@H](NC(=O)OC(C)(C)C)[C@H](C)C1` [Compound 4166, tert-butyl (2R,6S,7R,9R,13aS,14aR,16aS,Z)-2-(4-(cyclopropylmethoxy)-7-fluoroisoquinolin-1-yloxy)-14a-(cyclopropylsulfonylcarbamoyl)-7,9-dimethyl-5,16-dioxo-1,2,3,5,6,7,8,9,10,11,13a,14,14a,15,16,16a-hexadecahydrocyclopropa[e]pyrrolo[1,2-a][1,4]diazacyclopentadecin-6-ylcarbamate], for which the EC50 in test [1] (read-out: LE_1a (EC50, range)) was below 5.46 nM; in test [2] (read-out: LE_1b (EC50, range)) it was below 5.46 nM.
For the molecule `COc1ccc2c(O[C@@H]3C[C@H]4C(=O)N[C@]5(C(=O)NS(=O)(=O)C6(CF)CC6)C[C@H]5/C=C\CC[C@@H](C)C[C@@H](C)[C@H](NC(=O)OC(C)(C)C)C(=O)N4C3)nc(-c3ccc(OC(C)C)cc3)cc2c1` [Compound 4167, tert-butyl (2R,6S,7R,9R,13aS,14aR,16aS,Z)-14a-(1-(fluoromethyl)cyclopropylsulfonylcarbamoyl)-2-(3-(4-isopropoxyphenyl)-6-methoxyisoquinolin-1-yloxy)-7,9-dimethyl-5,16-dioxo-1,2,3,5,6,7,8,9,10,11,13a,14,14a,15,16,16a-hexadecahydrocyclopropa[e]pyrrolo[1,2-a][1,4]diazacyclopentadecin-6-ylcarbamate], the half-maximal effective concentration (EC50) is below 5.46 nM in test [1] (read-out: LE_1a (EC50, range)) and below 5.46 nM in test [2] (read-out: LE_1b (EC50, range)).
With `COc1cc2ccnc(O[C@@H]3C[C@H]4C(=O)N[C@]5(C(=O)NS(=O)(=O)C6CC6)C[C@H]5/C=C\CC[C@@H](C)C[C@@H](C)[C@H](NC(=O)OC(C)(C)C(F)(F)F)C(=O)N4C3)c2cc1F` [Compound 4169], the EC50 in test [1] (setting [3]) and in test [2] (setting [4]) was below 5.46 nM in each case.
Take `COc1ccc2ncc(O[C@@H]3C[C@H]4C(=O)N[C@]5(C(=O)NS(=O)(=O)C6(CF)CC6)C[C@H]5/C=C\CC[C@@H](C)C[C@@H](C)[C@H](NCC(F)F)C(=O)N4C3)nc2c1` [Compound 4170]: the 50% effective concentration (EC50) in test [1] (read-out: LE_1a (EC50, range)) was above 87.4 nM; in test [2] (read-out: LE_1b (EC50, range)), 4.82 to 103 nM.
On the same counts, the results for `COc1ccc2c(O[C@@H]3C[C@H]4C(=O)N[C@]5(C(=O)NS(=O)(=O)C6(CF)CC6)C[C@H]5/C=C\CC[C@@H](C)C[C@@H](C)[C@H](NC(=O)c5ccncc5F)C(=O)N4C3)ncc(OC)c2c1` [Compound 4171, (2R,6S,7R,9R,13aS,14aR,16aS,Z)-2-(4,6-dimethoxyisoquinolin-1-yloxy)-6-(3-fluoroisonicotinamido)-N-(1-(fluoromethyl)cyclopropylsulfonyl)-7,9-dimethyl-5,16-dioxo-1,2,3,5,6,7,8,9,10,11,13a,14,14a,15,16,16a-hexadecahydrocyclopropa[e]pyrrolo[1,2-a][1,4]diazacyclopentadecine-14a-carboxamide] are below 5.46 nM and below 5.46 nM.
